In patent publication US20250025525A1, “OCTAPEPTIDE FOR TOPICAL APPLICATION” (Alastin Skincare, Inc., priority 2022, published 2025):
Where no end group is shown, it is not given here.

Key:
[1] = system: Hyaluronic Acid Synthase 2 (HAS2); assay: RNA-Seq gene expression of HAS2 in keratinocytes; type: cell-based, Human; details: 24 hr, Hexapeptide 11 100 μg/ml
Experimental: (§1) Cell Lines. Human adult dermal fibroblast and keratinocyte cell lines were treated with 11 different compound treatments (plus DMSO control as treatment #12Primary cells were plated in cell specific media at 5K or 10K cells per cm^2. Cells were plated in 48 well plates (Greiner) in triplicate, one cell line per plate. Media volume was 500 ul per well. Outer two columns of wells were not used. All rows were used. Cells were cultured for 2 days in 37° C. 5% CO2 incubator. After 48 hours all the cell cultures were uniform and appeared healthy, no appreciable number of floating dead cells or evidence of vacuolization of cells that might indicate apoptotic or dying cells.
(§2) Compounds. Stocks of compounds 1 through 8 on the list below were prepared in PBS. […] This stock was 100× of final concentration. A 20 mg/ml stock of compound 10 (CBD) was prepared in DMSO. No undissolved particulates were observed but the stock solution was slightly cloudy, not completely clear. […]
(§3) RNA Lysate preparation. […] All samples were shipped frozen on dry ice for RNA extraction, library construction and sequencing to 25M paired end 100 bp reads per sample.
(§4) RNA-Seq. All the RNA samples were shipped frozen on dry ice for RNA extraction, library construction and sequencing to 25M paired end 100 bp reads per sample. Differentially expressed genes were identified and pathway enrichment was assessed using the Reactome Pathway.

[2] = system: Early Growth Response 3 (EGR3); assay: RNA-Seq gene expression of EGR3 in keratinocytes; type: cell-based, Human; details: 24 hr, Hexapeptide 11 100 μg/ml
Experimental: as §1, §2, §3, §4

Hyaluronidase 2 (HYAL2) = assay: RNA-Seq gene expression of HYAL2 in keratinocytes; type: cell-based, Human; details: 24 hr, 100 μg/ml
Experimental: as §1, §2, §3, §4

[3] = system: dermal and epidermal hyaluronic acid levels; details: ex vivo human skin model; cited from earlier work
[4] = system: Hyaluronic Acid Synthase 2 (HAS2); assay: RNA-Seq gene expression of HAS2 in dermal fibroblasts; type: cell-based, Human; details: 24 hr, Octapeptide 100 μg/ml
Experimental: as §1, §2, §3, §4

[5] = system: microfibrillar-associated protein 4 (MFAP4); assay: Ex vivo human skin tissue, MFAP4 immunofluorescent staining; details: once daily for 7 days, 20 μg/ml of each peptide
Experimental: (§5) Referring to FIG. 24, human skin tissue was defatted and cut into a diameter of approximately 7 mm and placed in a transwell insert with cell culture media (DMEM/F12 containing […] CaCl2), 2% fetal bovine serum, 50 μM adenine, 0.02 nM tri-iodothyronine, 1% ITS-X (insulin, transferrin, selenium mix), 1% glutagro (a glutamine equivalent), 1% pen/strep, and 1% gentamycin). The medium was changed daily. The human skin tissue samples were equilibrated for 3 days, then treated with the compounds noted in Table 6 once daily for 7 days. After 7 days of treatment, the skin samples were fixed in formalin and embedded in paraffin following industry standard procedures. The resulting blocks were prepared and sectioned for immunofluorescent staining.
(§6) Antibodies directed to tropoelastin (TE) (available from Elastin, Owensville, MO) and antibodies against microfibrillar-associated protein 4 (MFAP4) (available from ThermoFisher Waltham, MA) were used to detect the production of new elastin in the treated cells. The appropriate fluorescent secondary antibodies were used for detection by fluorescence microscopy. Images were obtained and analyzed using ImageJ software.
(§7) Data was obtained from a minimum of three donor skin samples and replicates or triplicates were performed for each compound treated.

dermal fibroblasts = assay: HA production and size assessment by PAGE of fibroblast supernatant; type: cell-based, human; details: 1× and 10× (100 μg/ml and 1000 μg/ml), 72 hr, 4 experiments
Experimental: Dermal fibroblasts were cultured in growth medium until near confluence in 6-well plates. When they reached confluence, the growth medium was replaced with serum-free medium for 24 hours. After 72 hr, 100 μl of media was collected from each treatment condition. The media was concentrated in a SpeedVac concentrator to a final volume of ˜10 μl. All 10 μl from each condition, were loaded onto an acrylamide gel (NuPAGE 4-12% Bis-Tris Protein Gel, Invitrogen, Waltham, MA). Sodium Hyaluronate, Research Grade, (HA2M) from Lifecore Biomedical (Chaska, MN) was reconstituted as recommended by the manufacturer and served as a MW reference, representing high MW HA. The gel was run at 200V for 3 hours to separate MW sizes from proteins and ECM components isolated from the supernatants along with the HA2M reference as a comparator. Gel buffer was exchanged with fresh room temperature buffer every 20 minutes to avoid overheating. The gel was stained using Stains-All (Millipore Sigma, Burlington, MA) and destained according to the manufacturer's protocol. […]
Human dermal fibroblasts were treated with Octapeptide (1× and 10×; corresponding to 100 μg/ml and 1000 μg/ml respectively) or left untreated. […] The experiment was conducted 4 times and the density of the bands from each supernatant were quantified (arbitrary units (AU)) using ImageJ. […]

tropoelastin (TE) = assay: Ex vivo human skin tissue, tropoelastin immunofluorescent staining; details: once daily for 7 days, 20 μg/ml of each peptide
Experimental: as §5, §6, §7

| Compound | HAS2 gene expression, fold-change relative to the non-treated cells [1] | upregulation of EGR3 gene expression relative to the non-treated cells [2] | HYAL2 gene expression, fold-change relative to the non-treated cells (Hyaluronidase 2 (HYAL2)) | stimulation of dermal hyaluronic acid levels versus placebo [3] | stimulation of epidermal hyaluronic acid levels versus placebo [3] | HAS2 gene expression, fold-change relative to the non-treated cells [4] | MFAP4 expression vs untreated skin [5] | production of high MW HA (band density, AU) (dermal fibroblasts) | TE expression vs untreated skin (tropoelastin (TE)) |
| --- | --- | --- | --- | --- | --- | --- | --- | --- | --- |
| Hexapeptide-11 | excellent upregulation | about seven | potent downregulation |  |  |  |  |  |  |
| CCCCCCCC(=O)CCc1ccc(O)c(OC)c1 [Hydroxymethoxyphenyl decanone] |  |  |  | 259% | 198% |  |  |  |  |
| GPHGVREA [octapeptide-45, proprietary peptide designed by R&D at Alastin; octapeptide included in HA Immerse Serum] |  |  | modest downregulation |  |  | excellent stimulation | increases | dose-responsive increase in the production of high MW HA | increases |
